Non-standard residues stand in square brackets, D forms with d. Residues, ends and D or L forms follow the SMILES beside them. ξ: configuration not given here. *: point of attachment. pGlu = O=C1CC[C@@H](C(=O)O)N1; Morpholide = C1CN(*)CCO1; ξThz = O=C(O)C1CSCN1

Assay type in all cases: in vivo
One experiment relates to peritoneal macrophages. The experiment in a line: Superoxide anion production by peritoneal macrophages from prednisolone-immunodepressed mice. To be noted: 200 mg/kg/die i.p. + prednisolone 0,5 mg/kg/die/s.c.; macrophages stimulated with phorbol myristate acetate. An excerpt:
Since the production of superoxide anion (O2 ) plays an important role in the microbicidal activity of macrophages (N. P. Cumming, M. J. Pabst, J.Exp.Med., 152, 1649, 1980), the showing of a stimulation of the superoxide anion in the macrophages by drugs provides a very important test for the evaluation of immunostimulating activity. The production of O2 in peritoneal macrophages isolated from prednisolone immunodepressed animals treated with the compounds of the invention was therefore evaluated. The mice were treated subcutaneously for two days with 0.5 mg/kg/day of prednisolone and with the compounds under examination at the dose of 100 mg/kg twice a day, whereas the morning of the animals sacrifice the animals received the compounds only. The macrophages were then isolated by means of a peritoneal washing and cultured in RPMI-1640 added with 10% foetal calf serum, at the concentration of 1×10^6 cells/ml at the temperature of ±37° C. Amounts of 1 ml of cell suspension were incubated for 15' at 37° C. with horse heart cytochrome C and stimulated with phorbol myristate acetate (H. Nielsen, Eur.J.Clin.Pharmacol., 30, 90, 1986). A specrophotometric determination at λ=550 nm of the reduced ferricytochroma using an extinction coefficient E(550)=29.5 mM was then carried out. As it turns out from Table 1, the prednisolone treatment induces an immunosuppression resulting in a lesser production of superoxide anion; the contemporaneous treatment with the compounds of the invention stimulates the 02 production by macrophages up to values close to those of control animals. The compounds have an activity which is from similar to higher than that of PGT at equiponderal doses.

Another experiment concerns E. coli. The experiment in a line: Endoperitoneal E. coli infection in mice. To be noted: 200 mg/kg/die os; for N° dead mice/N° treated mice: death-rate recorded 7-8 days after infection. Here is the method:
The compounds were tested in endoperitoneal infection in mice. Male COBS CD-1 mice weighing 22-25 g were inoculated i.p. with 0.5 ml/mouse of a pathogenic E.coli suspension (in saline solution+0.5% porcine gastric mucine), having a transmittance of about 50%. The mice were treated orally with the compounds twice a day from two days before until the day of the infection, 7 hours before the inoculation.
The death-rate was recorded for about 7-8 days after the infection.

For experiment [1], the system named is delayed hypersensitivity by DNCB. In words: Delayed hypersensitivity induced by DNCB in prednisolone-immunodepressed mice. Particulars: 200 mg/kg/die os; for Weight left ear/Weight right ear: 24 hours after challenge; for Increase %: vs. control group. Here is the method: Male COBS CD-2 mice weighing about 30 g were sensitized with 25 μl of dinitrochlorobenzene (DNCB) at the concentration of 20 mg/ml in acetone applied on a zone of the abdomen depilated at least 2 hours before.
After 12 hours the animals were challenged with 5 μl of DNCB at the concentration of 10 mg/ml in acetone applied on the external surface of the left auricolar pinna.
In order to carry out this operation the mice were slightly anesthetized with ether. The mice were treated with the compounds under examination from two days before until the day of sensitization and with the compounds and with prednisolone (0.5 mg/kg/die s.c.; 0.5 ml/10 g) from the tenth day after sensitization until the day when challenge occurred.
The animals were killed 24 hours after the challenge; both ears were cut and weighed. The values are expressed as the ratio between the left ear (sensitized) and the right one (unsensitized). […] The increase was higher than that obtained after oral administration of PGT.

A further experiment relates to rosette forming cells. The experiment in a line: Rosette forming cells (primary response) in prednisolone-immunodepressed mice. To be noted: 200 mg/kg/die os; for Rosette forming cells change %: vs. control group. Here is the method: The compounds of the invention are also active in the test of the rosette forming cells (primary response; II° type) in prednisolone immunodepressed mice (S. D. Wilson, Immunology, 21, 233, 1971).
Male COBS CD-1 mice weighing about 25 g were treated for 7 days twice a day, with the compounds of the invention and at the second and third day with prednisolone at the dose of 5 mg/kg/s.c. (0.05 ml/10 g).
After 4 days from the start of the treatment the
10 animals were immunized with 5×10^8 sheep red blood cells in 0.2 ml of PBS by intraperitoneal route. The red blood cells were prepared by centrifugating the citrated sheep blood at 1500 rpm for 15 min.; the precipitated red blood cells were washed twice at 1200 rpm for 10 min. in PBS removing the first layer, then suspended again in PBS and counted adjusting at 2.5×10^9 cells/ml.
After 6 days from the immunization the rosette test was carried out by killing the mice and removing the spleen, which was placed in 1 ml of Hank solution in ice-bath and then triturated, homogenated and gauze-filtered. The homogenate was washed twice in Hank, centrifugating at 1200 rpm for 10 min. and then suspended again. The suspension was adjusted to 6×10^7 cells/ml by counting at the Coulter Counter after lysis of the red blood cells. 100 μl of spleen cells suspension (6×10^7 /ml)+100 μl of red blood cells suspension (3×10^8 /ml) were mixed in 0.8 ml of Hank stirring slightly for 1 minute. The samples were incubated for 24 h at+4° C. avoiding any stirring. The samples were then stirred and the number of rosette forming cells/ml was evaluated by means of the Burker apparatus.

Experiment [2] concerns reticulo-endothelial system. In words: Activity of the reticulo-endothelial system (colloidal charcoal clearance) in cyclophosphamide-immunodepressed mouse. To be noted: 100 mg/kg/die i.p.; for Absorbance Δ (0'-20'): means ± SE of 10 mice, absorbance at 640 nm. Here is the method: The compounds of the invention are also active in the test of the activity of the reticulo-endothelial system in the mouse immunodepressed by cyclophosphamide (Biozzi G. et al., Brit. J. Path., 34, 441, 1953). COBS CD-1 mice were injected i.v. with colloidal charcoal (0.32 ml of china ink/ml of saline), 10 μl of retroorbital blood were then taken out immediately before and after 1, 10 and 20 min. from the intravenous injection, the blood sample was placed in 3 ml of HCl 0.1 N and the absorbance was evaluated at 640 nm and the change of absorbance was evaluated between the time 0 and 20 min. The animals were treated with cyclophosphamide (100 mg/kg i.p.) from the third to the fifth day of treatment and with the compounds under test for 10 consecutive days; the day after the last treatment the test was carried out.

`NC(=O)C1CSCN1C(=O)[C@@H]1CCC(=O)N1` (stereo partly drawn) [Ia, 3-Pyroglutamyl-thiazolidine-4-carboxamide] ([pGlu]-[ξThz]-NH2): in the experiment with peritoneal macrophages, the “nmol cytochrome C reduced/1 × 10^6 macrophages (mean ± S.E.)” value is recorded as 9.25 ± 0.48 nmol cytochrome C reduced/1 ×. Further, in the experiment on E. coli, the “Protection (%)” value is 40% and the “N° dead mice/N° treated mice” value is given as 6/10. In addition, in experiment [1], the “Weight left ear/Weight right ear” value was 1.688 ± 0.029 and the Increase % was 27.68%. In the experiment on rosette forming cells, the “Rosette forming cells/spleen cells %” value is recorded as 1.140 ± 0.032% and the “Rosette forming cells change %” value is recorded as “+34.12%”. In experiment [2], the “Variation versus the cyclophosphamide treated group %” value is “+15.62%” and the “Absorbance Δ (0'-20')” value was determined as 0.370 ± 0.013.
For `O=C1CC[C@@H](C(=O)N2CSCC2C(=O)N2CCOCC2)N1` (stereo partly drawn) [Ib, N-(3-Pyroglutamyl-thiazolidine-4-carbonyl)morpholine] ([pGlu]-[ξThz]-Morpholide), the “nmol cytochrome C reduced/1 × 10^6 macrophages (mean ± S.E.)” value with peritoneal macrophages was 9.62 ± 0.63 nmol cytochrome C reduced/1 ×. In the experiment with E. coli, the “Protection (%)” value is 40% and the “N° dead mice/N° treated mice” value is recorded as 6/10. In experiment [1], the “Weight left ear/Weight right ear” value was 1.702 ± 0.026 and the Increase % is recorded as 28.74%. Besides, in the experiment on rosette forming cells, the “Rosette forming cells/spleen cells %” value worked out at 1.138 ± 0.038% and the “Rosette forming cells change %” value is recorded as “+33.88%”. Besides, in experiment [2], the “Variation versus the cyclophosphamide treated group %” value is listed as “+19.37%” and the “Absorbance Δ (0'-20')” value stood at 0.382 ± 0.021.
As to `CCNC(=O)C1CSCN1C(=O)[C@@H]1CCC(=O)N1` (stereo partly drawn) [Ic, N-(3-pyroglutamyl-thiazolidine-4-carbonyl)-ethylamine] ([pGlu]-[ξThz]-NHEt), the “nmol cytochrome C reduced/1 × 10^6 macrophages (mean ± S.E.)” value with peritoneal macrophages is 7.83 ± 0.72 nmol cytochrome C reduced/1 ×. For the same compound, in the experiment on E. coli, the “Protection (%)” value is 40% and the “N° dead mice/N° treated mice” value was 6/10. Moreover, in experiment [1], the “Weight left ear/Weight right ear” value turned out to be 1.706 ± 0.028 and the Increase % was 29.05%. In addition, in the experiment on rosette forming cells, the “Rosette forming cells/spleen cells %” value stood at 1.145 ± 0.032% and the “Rosette forming cells change %” value is “+34.71%”. Also, in experiment [2], the “Variation versus the cyclophosphamide treated group %” value is listed as “+15.94%” and the “Absorbance Δ (0'-20')” value came out at 0.371 ± 0.016.
Consider `O=C1CC[C@@H](C(=O)N2CSCC2C(=O)O)N1` (stereo partly drawn) [PGT, 3-pyroglutamyl-thiazolidine-4-carboxylic acid, reference compound] ([pGlu]-[ξThz]-OH), for which the “nmol cytochrome C reduced/1 × 10^6 macrophages (mean ± S.E.)” value in the experiment on peritoneal macrophages is listed as 8.85 ± 0.75 nmol cytochrome C reduced/1 ×. Besides, in the experiment on E. coli, the “Protection (%)” value was 20% and the “N° dead mice/N° treated mice” value is recorded as 8/10. In experiment [1], the “Weight left ear/Weight right ear” value is reported as 1.579 ± 0.027 and the Increase % is 19.44%. Besides, in the experiment with rosette forming cells, the “Rosette forming cells/spleen cells %” value is 1.125 ± 0.040% and the “Rosette forming cells change %” value is recorded as “+32.35%”. In experiment [2], the “Variation versus the cyclophosphamide treated group %” value was “+14.06%” and the “Absorbance Δ (0'-20')” value came out at 0.365 ± 0.018.

The values are drawn from patent US5066644A, “Derivatives of thiazolidine-4-carboxylic acid, its preparation and pharmaceutical compositions containing it” (Poli Industria Chimica S.p.A., priority 1989, dated 1991).
